Consider five compounds from patent US20060183780A1, “Pyrazole compounds useful in the treatment of inflammation” (priority 2003, published 2006).

The assay deals with T1, 15-lipoxygenase (Homo sapiens, UniProt P16050).
T1 sequence (P16050 1-662): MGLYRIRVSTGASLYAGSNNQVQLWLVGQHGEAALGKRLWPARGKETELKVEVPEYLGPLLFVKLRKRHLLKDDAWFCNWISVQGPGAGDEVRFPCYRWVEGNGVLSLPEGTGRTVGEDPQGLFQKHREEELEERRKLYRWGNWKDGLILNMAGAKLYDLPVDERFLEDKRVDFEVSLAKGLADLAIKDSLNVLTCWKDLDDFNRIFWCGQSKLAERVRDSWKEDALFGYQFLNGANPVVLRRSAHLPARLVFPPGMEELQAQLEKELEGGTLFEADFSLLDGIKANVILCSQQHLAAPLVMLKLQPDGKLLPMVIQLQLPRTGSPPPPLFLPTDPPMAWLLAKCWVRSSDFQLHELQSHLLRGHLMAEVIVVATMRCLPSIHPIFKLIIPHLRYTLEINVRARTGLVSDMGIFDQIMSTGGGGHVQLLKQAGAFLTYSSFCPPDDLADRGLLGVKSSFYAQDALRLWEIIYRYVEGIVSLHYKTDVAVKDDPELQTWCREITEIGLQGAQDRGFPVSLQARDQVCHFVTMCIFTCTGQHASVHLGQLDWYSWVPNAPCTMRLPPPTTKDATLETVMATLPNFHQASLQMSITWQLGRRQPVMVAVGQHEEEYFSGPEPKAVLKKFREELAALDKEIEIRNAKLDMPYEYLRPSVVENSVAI
The experiment in a line: 15-lipoxygenase inhibition, DPPP fluorescence assay with linoleic acid. The class given is biochemical. As to conditions: biological test method; test concentration not given. The procedure:
The assay employed takes advantage of the ability of lipid hydroperoxides to oxidize the non-fluorescent diphenyl-1-pyrenylphosphine (DPPP) to its corresponding fluorescent phosphine oxide. Fluorescence is measured using a dual-scanning microplate spectrofluorometer, Spectramax Gemini, from Molecular Devices. DPPP was purchased from Molecular Probes. Linoleic acid was from Biomol and PBS (phosphate buffered saline) from Gibco Life Technologies. The assay is performed in 96-well plates at room temperature (20-22° C.). The following are added (in the following order) to each well:
a) 35 μl of Dulbecco's phosphate buffered saline (PBS);
b) inhibitor (i.e. compound) or vehicle (0.5 μl DMSO);
c) 10 μL of a 5× concentrated 15-lipoxygenase solution in PBS. The plates are incubated for 5 minutes at room temperature;
d) 5 μl of 2 mM linoleic acid in PBS. The plate is then incubated for 20 minutes at room temperature;
e) the enzymatic reaction is terminated by the addition of 50 μl methanol; and
f) 50 μl of 200 μM DPPP in methanol is added to each well.
After 30 minutes at room temperature, the fluorescence can be read using an excitation wavelength of 358 nm and an emission wavelength of 379 nm.

In the case of `O=C(Nc1cccnc1)c1ccn(C(=O)c2ccccc2)n1` [Example 1, 1-Benzoyl-1H-pyrazole-3-carboxylic acid pyridin-3-ylamide], the “inhibition of 15-lipoxygenase” value was 45%.

`COC(=O)c1ccsc1NC(=O)c1ccn(C(=O)c2cc(F)ccc2C)n1` [Example 8, 2-{[1-(5-Fluoro-2-methylbenzoyl)-1H-pyrazole-3-carbonyl]amino}-thiophene-3-carboxylic acid methyl ester]: the “inhibition of 15-lipoxygenase” value is listed as 50%.

As for `CCOc1ccccc1C(=O)n1ccc(C(=O)Nc2cc(C)no2)n1` [Example 14, 1-(2-Ethoxybenzoyl)-1H-pyrazole-3-carboxylic acid (3-methylisoxazol-5-yl)amide], the “inhibition of 15-lipoxygenase” value was 39%.

`CCCCCc1ccc(C(=O)n2ccc(C(=O)Nc3ccc(N(C)C)cc3)n2)cc1` [Example 23, 1-(4-Pentylbenzoyl)-1H-pyrazole-3-carboxylic acid (4-dimethylaminophenyl)amide]: the “inhibition of 15-lipoxygenase” value came to 44%.

Turning to `CCOc1ccccc1C(=O)n1ccc(C(=O)Nc2cc(Cl)ccc2C#N)n1` [Example 26, 1-(2-Ethoxybenzoyl)-1H-pyrazole-3-carboxylic acid (5-chloro-2-cyanophenyl)amide], the “inhibition of 15-lipoxygenase” value is reported as 45%.
